Data: BigSolDB 2.1

Q: For `O=C(O)c1cc(O)c(O)c(O)c1`, which solubility (mole fraction) (in acetonitrile, 293.15 K) is on record?
A: 0.0274

Q: What about the solubility (mole fraction) (in acetonitrile, 298.15 K) of the same molecule?
A: 0.0341

Q: What about the solubility (mole fraction) (in acetonitrile, 303.15 K) of the same molecule?
A: 0.0355

Q: What about the solubility (mole fraction) (in acetonitrile, 308.15 K) of the same molecule?
A: 0.0378

Q: What about the solubility (mole fraction) (in acetonitrile, 313.15 K) of the same molecule?
A: 0.0391

Q: What about the solubility (mole fraction) (in acetonitrile, 318.15 K) of the same molecule?
A: 0.0405

Q: What about the solubility (mole fraction) (in isopropanol, 293.15 K) of the same molecule?
A: 0.028

Q: What about the solubility (mole fraction) (in isopropanol, 298.15 K) of the same molecule?
A: 0.0348

Q: And the solubility (mole fraction) (in isopropanol, 303.15 K)?
A: 0.0362

Q: What about the solubility (mole fraction) (in isopropanol, 308.15 K) of the same molecule?
A: 0.0386

Q: And the solubility (mole fraction) (in isopropanol, 313.15 K)?
A: 0.04

Q: What about the solubility (mole fraction) (in isopropanol, 318.15 K) of the same molecule?
A: 0.0409

Q: And the solubility (mole fraction) (in n-propanol, 293.15 K)?
A: 0.0332

Q: And the solubility (mole fraction) (in n-propanol, 298.15 K)?
A: 0.0413

Q: And the solubility (mole fraction) (in n-propanol, 303.15 K)?
A: 0.0429

Q: And the solubility (mole fraction) (in n-propanol, 308.15 K)?
A: 0.0458

Q: And the solubility (mole fraction) (in n-propanol, 313.15 K)?
A: 0.0474

Q: And the solubility (mole fraction) (in n-propanol, 318.15 K)?
A: 0.0486

Q: And the solubility (mole fraction) (in water, 293.15 K)?
A: 0.00127

Q: What about the solubility (mole fraction) (in water, 298.15 K) of the same molecule?
A: 0.00148

Q: What about the solubility (mole fraction) (in water, 303.15 K) of the same molecule?
A: 0.00204

Q: What about the solubility (mole fraction) (in water, 308.15 K) of the same molecule?
A: 0.00252

Q: What about the solubility (mole fraction) (in water, 313.15 K) of the same molecule?
A: 0.0032

Q: And the solubility (mole fraction) (in water, 318.15 K)?
A: 0.0038
